Reference: article PMC8511016, “Src acts as the target of matrine to inhibit the proliferation of cancer cells by regulating phosphorylation signaling pathways” (Cell Death & Disease, 2021)

Molecular target: T1, Src (Homo sapiens, UniProt P12931)
T1 construct: recombinant GST-Src (full-length) and GST-Kinase (270–536 aa); endogenous Src in cell lysates
Assay: matrine-bead pull-down of recombinant GST-Src/GST-Kinase competed by free matrine; CETSA and DARTS in lysates; IC50 from Src kinase activity kit in SKOV3 cells ([…] ATP)
Format: binding

T1 sequence (P12931 2-536): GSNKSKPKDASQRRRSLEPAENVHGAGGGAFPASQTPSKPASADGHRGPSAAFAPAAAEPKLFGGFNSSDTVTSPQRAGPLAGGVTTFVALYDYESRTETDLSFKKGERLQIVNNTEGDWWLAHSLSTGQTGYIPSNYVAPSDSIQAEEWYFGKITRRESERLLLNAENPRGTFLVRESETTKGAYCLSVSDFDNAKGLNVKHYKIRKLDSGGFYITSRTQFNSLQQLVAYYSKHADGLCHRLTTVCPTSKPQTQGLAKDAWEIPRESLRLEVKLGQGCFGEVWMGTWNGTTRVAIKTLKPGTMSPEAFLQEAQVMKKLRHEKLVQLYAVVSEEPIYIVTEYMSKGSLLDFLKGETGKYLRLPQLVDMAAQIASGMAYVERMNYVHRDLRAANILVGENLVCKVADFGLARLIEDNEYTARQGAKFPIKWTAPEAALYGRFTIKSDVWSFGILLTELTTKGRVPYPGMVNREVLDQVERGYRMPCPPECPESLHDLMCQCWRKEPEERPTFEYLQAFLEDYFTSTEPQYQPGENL

In the case of O=C1CCC[C@@H]2[C@H]3CCCN4CCC[C@@H](CN12)[C@@H]34 [MA, matrine], the IC50 is reported as 7.37 mM.
